Results on four compounds are retold here after patent US6169181A, “Compounds useful to treat retroviral infections” (Pharmacia & Upjohn Company, priority 1998, dated 2001).

SMILES strings stand for the structures. Where two headings read alike, the source gives them in different places.

Assay [1] has as its target T1, HIV-1 protease (Human immunodeficiency virus type 1 group M subtype B, UniProt P04585). Description: biochemical. The method, boiled down:
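Biotinylated, FITC-labelled peptide substrate cleaved in 0.1 M sodium acetate pH 5.5, 1.0 M NaCl, 0.05% NP-40, room temperature. Filtered labelled product read by fluorescence; nonlinear least-squares fit.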

In assay [2] the test system is human T-cell lines, e.g., MT4 and H9, infected with HIV-1IIIB. In words: Retroviral replication in infected human T-cell lines. In kind it is cell-based. The note with it: MT4 and H9 cells infected with HIV-1IIIB. How it is done: Several compounds of the present invention, such as N-[3-(1-[5,6-Dihydro-4-hydroxy-2-oxo-6-(2-phenethyl)-6-propyl-2H-pyran-3-yl]-2,2-dimethylpropyl)phenyl]-1-methyl-1H-imidazole-4-sulfonamide were tested in known human cell lines, such as human T-cell lines, e.g., MT4 and H9, which were infected with HIV-1IIIB, and certain of these compounds were further tested in peripheral blood mononuclear cells (PBMC), which were infected with HIV-1JRCSF (a clinical isolate).

The target in assay [3] is T2, single chain tethered (tandem) HIV protease (HIV-1 M:B_HXB2R, UniProt P04585).
T2 construct: purified enzyme, FITC/biotin substrate assay
In words: Tandem HIV protease assay. The note with it: read-out: FITC KI; Table II; enzyme HIV1TANDEM. The format is biochemical. The method in brief: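 Covalently tethered single-chain HIV protease dimer allows very low enzyme levels for Ki measurement. N-biotinylated, C-fluorescein-labelled peptide substrate incubated with enzyme and inhibitor at pH 5.5 in the dark for 96 h; streptavidin beads stop reaction, cleaved product filtered off and residual fluorescence fitted to obtain Ki.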

For assay [4], the target named is T1, HIV-1 protease. Description: biochemical. The note with it: Table II, enzyme HIV-1. The method, boiled down: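 Percent inhibition came from fluorescence of FITC-tagged cleavage product, separated by filtration from uncleaved substrate captured on streptavidin-coated beads. The enzyme (10 μl of 0.1 μM) and compound acted on a biotin/FITC dual-labelled peptide for one hour at room temperature in the dark. The reaction ran in 0.1 M sodium acetate, pH 5.5, with 1.0 M NaCl and 0.05% NP-40.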

The target of a further assay is T3, HIV-2 (Human immunodeficiency virus type 2 subtype A, UniProt P04584).
T3 construct: tested in the HIV protease screening assay and/or tandem HIV protease assay
In words: FITC Ki, enzyme HIV-2. The format is biochemical. The note with it: Table II.

[5] abbreviates: Table II, enzyme HIV-1, read-out: FITC KI.

T3 sequence (P04584 514-612 limits assumed): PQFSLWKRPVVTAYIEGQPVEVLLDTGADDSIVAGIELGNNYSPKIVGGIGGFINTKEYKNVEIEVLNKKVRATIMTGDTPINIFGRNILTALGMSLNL

Regarding `CCCC1(CCc2ccccc2)CC(O)=C(C(c2cccc(NS(=O)(=O)c3cn(C)cn3)c2)C(C)(C)C)C(=O)O1` (stereo not drawn) [Example 250, N-[3-(1-[5,6-Dihydro-4-hydroxy-2-oxo-6-(2-phenethyl)-6-propyl-2H-pyran-3-yl]-2,2-dimethylpropyl)phenyl]-1-methyl-1H-imidazole-4-sulfonamide], at HIV-1 protease [1] (Table I, read-out: HIV Protease FITC Assay Ki), the Ki (usually the equilibrium dissociation constant of an inhibitor or competing ligand from its target) came out at 1.2 nM. Besides, the “inhibition of retroviral replication” value in assay [2] was “inhibit retroviral replication”.
Take `CCCC1(CCc2ccc(F)cc2)CC(O)=C(C(CC)c2cccc(NS(=O)(=O)c3ccc(C(N)=O)cn3)c2)C(=O)O1` (stereo not drawn) [Example 332, N-[3-{1-(4-Hydroxy-5,6-dihydro-2-oxo-6-(2-(4-fluorophenyl)ethyl)-6-propyl-2H-pyran-3-yl)propyl}phenyl]-5-carbamoylpyridine-2-sulfonamide]: the Ki in assay [3] amounted to 0.4 nM; on HIV-1 protease [1] (setting [5]) it was 1.6 nM. Moreover, the “PROTEASE % INHIB.” value on HIV-1 protease [4] (DOSE 0.123 (unit not given)) is 81.87%; on HIV-1 protease [4] (DOSE 0.370 (unit not given)) it was 85.65%; at HIV-1 protease [4] (DOSE 1.100 (unit not given)) it was 86.23%; at HIV-1 protease [4] (DOSE 3.300 (unit not given)) it was 93.28%; at HIV-1 protease [4] (DOSE 10.000 (unit not given)), 91.68%; on HIV-1 protease [4] (DOSE 30.000 (unit not given)), 95.08%.
In the case of `N#Cc1ccc(S(=O)(=O)Nc2cccc(CC3=C(O)CC(CCc4ccccc4)(CCc4ccccc4)OC3=O)c2)nc1` [Example 353, N-[3-{1-(4-Hydroxy-5,6-dihydro-2-oxo-6,6-bis(2-phenylethyl)-2H-pyran-3-yl)methyl}phenyl]-5-cyanopyridine-2-sulfonamide], the inhibition constant Ki in assay [3] worked out at 5.3 nM; at HIV-1 protease [1] (setting [5]) it was 10.4 nM. Further, the “PROTEASE % INHIB.” value at HIV-1 protease [4] (DOSE 0.123 (unit not given)) stood at 51.83%; at HIV-1 protease [4] (DOSE 0.370 (unit not given)), 68.49%; on HIV-1 protease [4] (DOSE 1.100 (unit not given)), 70.71%; on HIV-1 protease [4] (DOSE 3.300 (unit not given)) it was 63.96%; on HIV-1 protease [4] (DOSE 10.000 (unit not given)), 51.8%; on HIV-1 protease [4] (DOSE 30.000 (unit not given)), 43.93%.
As to `CCC(C1=C(O)C2CCCCC2OC1=O)c1cccc(NS(=O)(=O)c2ccc(C#N)cn2)c1` (stereo not drawn) [Example 370], the Ki is 0.05 nM in assay [3], 0.05 nM at HIV-2 and 0.59 nM at HIV-1 protease [1] (setting [5]). The “PROTEASE % INHIB.” value came out at 92.81% at HIV-1 protease [4] (DOSE 0.123 (unit not given)); 87.87% on HIV-1 protease [4] (DOSE 0.370 (unit not given)); 102.89% at HIV-1 protease [4] (DOSE 1.100 (unit not given)); 109.33% on HIV-1 protease [4] (DOSE 3.300 (unit not given)); 113.79% on HIV-1 protease [4] (DOSE 10.000 (unit not given)); 98.14% on HIV-1 protease [4] (DOSE 30.000 (unit not given)).
